Measurements taken from US20070088064A1, “PHARMACEUTICAL COMPOSITION CONTAINING BICYCLIC TYPE COMPOUNDS” (SmithKline Beecham plc, priority 1992, published 2007).

Test system: electrically-induced seizures
Experiment: Maximal electroshock seizure (MES) threshold test
Assay type: in vivo
Conditions: 10 mg/kg p.o., mice
Description: The maximal electroshock seizure (MES) threshold test in rodents is particularly sensitive for detecting potential anticonvulsant properties^1. In this model, anticonvulsant agents elevate the threshold to electrically—induced seizures whilst proconvulsants lower the seizure threshold.
Mice (male, Charles River, U.K. CD-1 strain, 25-30 g) are randomly assigned to groups of 10-20 and dosed orally or intraperitoneally at a dose volume of 10 ml/kg with various doses of compound (0.3-300 mg/kg) or vehicle. Mice are then subjected at 30 or 60 min post dose to a single electroshock (0.1 sec, 50 Hz, sine wave form) administered via corneal electrodes. The mean current and standard error required to induce a tonic seizure in 50% (CC50) of the mice in a particular treatment group is determined by the ‘up and down’ method of Dixon and Mood (1948)^2. Stastical comparisons between vehicle—and drug—treated groups are made using the method of Litchfield and Wilcoxon (1949)^3.
In control animals the CC50 is usually 14-18 mA. […] If a tonic convulsion does occur, then the current is decreased, and so on until all the animals in the group have been tested.
The percentage increase or decrease in CC50 for each group compared to the control is calculated. […]

Compound | enhanced seizure threshold (percentage increase in CC50 compared to control)
CC(=O)c1ccc2c(c1)[C@H](NC(=O)c1ccc(F)cc1)[C@H](O)C(C)(C)O2 (relative stereo) [Example 3, cis-6-Acetyl-4S-(4-fluorobenzoylamino)-3,4-dihydro-2,2-dimethyl-2H-1-benzopyran-3S-ol] | 84%
CCc1ccc2c(c1)[C@H](NC(=O)c1ccc(F)cc1)[C@H](O)C(C)(C)O2 (relative stereo) [Example 7, cis-6-Ethyl-4S-(4-fluorobenzoylamino)-3,4-dihydro-2,2-dimethyl-2H-1-benzopyran-3S-ol] | 105%
